For 38 molecules, Ki results are on record in patent publication US9283222B2 (priority 2006, dated 2016).

The assay deals with Recombinant Human Poly(ADP-Ribose) Polymerase (PARP), PARP-1 (Homo sapiens (Human), UniProt P09874). The note with it: read-out: PARP-1 (Ki); Table 1; text calls the values EC50s.
Sequence of Recombinant Human Poly(ADP-Ribose) Polymerase (PARP), PARP-1 (P09874 whole entry): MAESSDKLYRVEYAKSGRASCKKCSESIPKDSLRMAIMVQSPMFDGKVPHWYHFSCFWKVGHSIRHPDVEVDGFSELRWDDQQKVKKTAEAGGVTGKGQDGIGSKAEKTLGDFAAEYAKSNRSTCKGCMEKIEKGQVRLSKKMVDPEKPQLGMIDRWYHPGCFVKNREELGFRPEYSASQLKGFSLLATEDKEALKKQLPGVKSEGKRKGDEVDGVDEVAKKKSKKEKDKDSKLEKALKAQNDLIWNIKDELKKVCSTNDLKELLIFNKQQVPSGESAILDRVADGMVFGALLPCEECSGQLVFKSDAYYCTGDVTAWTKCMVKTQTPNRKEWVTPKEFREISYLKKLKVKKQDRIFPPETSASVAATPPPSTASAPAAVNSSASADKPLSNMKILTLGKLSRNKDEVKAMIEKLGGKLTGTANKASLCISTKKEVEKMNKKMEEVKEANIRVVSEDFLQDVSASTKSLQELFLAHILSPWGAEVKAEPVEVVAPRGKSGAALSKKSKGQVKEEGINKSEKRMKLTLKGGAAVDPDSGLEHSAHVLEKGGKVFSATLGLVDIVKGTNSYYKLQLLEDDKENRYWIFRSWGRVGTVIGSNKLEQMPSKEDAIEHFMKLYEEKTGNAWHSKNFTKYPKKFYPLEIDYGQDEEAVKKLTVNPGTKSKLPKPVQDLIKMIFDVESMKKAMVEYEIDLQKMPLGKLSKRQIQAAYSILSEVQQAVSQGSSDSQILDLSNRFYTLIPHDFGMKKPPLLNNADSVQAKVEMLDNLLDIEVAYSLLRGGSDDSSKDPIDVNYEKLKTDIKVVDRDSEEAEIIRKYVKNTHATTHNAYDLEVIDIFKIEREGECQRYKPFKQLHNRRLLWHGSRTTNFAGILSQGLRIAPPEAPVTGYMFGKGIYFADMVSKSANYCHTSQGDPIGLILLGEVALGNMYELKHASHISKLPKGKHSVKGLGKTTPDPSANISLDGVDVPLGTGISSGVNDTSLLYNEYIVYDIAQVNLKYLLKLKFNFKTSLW

Turning to `COc1cccc(CCNC(=O)c2cccc(Cc3n[nH]c(=O)c4c3CCCC4)c2)c1OC` [Example 402, N-(2-(2,3-dimethoxyphenyl)ethyl)-3-((4-oxo-3,4,5,6,7,8-hexahydrophthalazin-1-yl)methyl)benzamide], the Ki – broadly, a dissociation constant, usually derived from enzyme kinetics or from competition with a known ligand – was determined as 0.086 µM.
The result for `COc1ccc(CCNC(=O)c2cccc(Cc3n[nH]c(=O)c4c3CCCC4)c2)c(OC)c1` [Example 403, N-(2-(2,4-dimethoxyphenyl)ethyl)-3-((4-oxo-3,4,5,6,7,8-hexahydrophthalazin-1-yl)methyl)benzamide] reads 0.056 µM; that for `COc1ccc(OC)c(CCNC(=O)c2cccc(Cc3n[nH]c(=O)c4c3CCCC4)c2)c1` [Example 404, N-(2-(2,5-dimethoxyphenyl)ethyl)-3-((4-oxo-3,4,5,6,7,8-hexahydrophthalazin-1-yl)methyl)benzamide], 0.055 µM; that for `COc1ccc(CCNC(=O)c2cccc(Cc3n[nH]c(=O)c4c3CCCC4)c2)cc1OC` [Example 405, N-(2-(3,4-dimethoxyphenyl)ethyl)-3-((4-oxo-3,4,5,6,7,8-hexahydrophthalazin-1-yl)methyl)benzamide], 0.019 µM.
To `COc1cc(CCNC(=O)c2cccc(Cc3n[nH]c(=O)c4c3CCCC4)c2)cc(OC)c1` [Example 406, N-(2-(3,5-dimethoxyphenyl)ethyl)-3-((4-oxo-3,4,5,6,7,8-hexahydrophthalazin-1-yl)methyl)benzamide] belongs 0.042 µM.
Regarding `O=C(NCCc1ccc2c(c1)OCO2)c1cccc(Cc2n[nH]c(=O)c3c2CCCC3)c1` [Example 407, N-(2-(1,3-benzodioxol-5-yl)ethyl)-3-((4-oxo-3,4,5,6,7,8-hexahydrophthalazin-1-yl)methyl)benzamide], the Ki is 0.022 µM.
The result for `CC(c1ccc(F)c(N2CCCC2=O)c1)c1n[nH]c(=O)c2c1CCCC2` (centres unmarked) [Example 413, 4-(1-(4-fluoro-3-(2-oxopyrrolidin-1-yl)phenyl)ethyl)-5,6,7,8-tetrahydrophthalazin-1(2H)-one] reads 0.018 µM; that for `O=c1[nH]nc(Cc2ccc(F)c(Br)c2)c2ncccc12` [Example 415], 3.2 µM; that for `CCN(CCN(C)C)C(=O)c1cccc(Cc2n[nH]c(=O)c3c2CCCC3)c1` [Example 418, N-(2-(dimethylamino)ethyl)-N-ethyl-3-((4-oxo-3,4,5,6,7,8-hexahydrophthalazin-1-yl)methyl)benzamide], 0.034 µM.
The result for `CCN(CC)CCN(C)C(=O)c1cccc(Cc2n[nH]c(=O)c3c2CCCC3)c1` [Example 419, N-(2-(diethylamino)ethyl)-N-methyl-3-((4-oxo-3,4,5,6,7,8-hexahydrophthalazin-1-yl)methyl)benzamide] reads 0.016 µM; that for `CCN(Cc1ccccc1)C(=O)c1cccc(Cc2n[nH]c(=O)c3c2CCCC3)c1` [Example 420, N-benzyl-N-ethyl-3-((4-oxo-3,4,5,6,7,8-hexahydrophthalazin-1-yl)methyl)benzamide], 0.021 µM; that for `CC(C)N(Cc1ccccc1)C(=O)c1cccc(Cc2n[nH]c(=O)c3c2CCCC3)c1` [Example 421, N-benzyl-N-isopropyl-3-((4-oxo-3,4,5,6,7,8-hexahydrophthalazin-1-yl)methyl)benzamide], 0.068 µM.
The result for `CCCCN(Cc1ccccc1)C(=O)c1cccc(Cc2n[nH]c(=O)c3c2CCCC3)c1` [Example 422, N-benzyl-N-butyl-3-((4-oxo-3,4,5,6,7,8-hexahydrophthalazin-1-yl)methyl)benzamide] reads 0.105 µM.
For the molecule `O=C(c1cccc(Cc2n[nH]c(=O)c3c2CCCC3)c1)N(Cc1ccccc1)Cc1ccccc1` [Example 423, N,N-dibenzyl-3-((4-oxo-3,4,5,6,7,8-hexahydrophthalazin-1-yl)methyl)benzamide], the Ki worked out at 0.12 µM.
As for `O=C(c1cccc(Cc2n[nH]c(=O)c3c2CCCC3)c1)N(CCO)Cc1ccccc1` [Example 424, N-benzyl-N-(2-hydroxyethyl)-3-((4-oxo-3,4,5,6,7,8-hexahydrophthalazin-1-yl)methyl)benzamide], the Ki was 0.031 µM.
Turning to `CN(CCc1ccccn1)C(=O)c1cccc(Cc2n[nH]c(=O)c3c2CCCC3)c1` [Example 426, N-methyl-3-((4-oxo-3,4,5,6,7,8-hexahydrophthalazin-1-yl)methyl)-N-(2-pyridin-2-ylethyl)benzamide], the Ki is 0.014 µM.
On to `COc1ccc(CCN(C)C(=O)c2cccc(Cc3n[nH]c(=O)c4c3CCCC4)c2)cc1OC` [Example 427, N-(2-(3,4-dimethoxyphenyl)ethyl)-N-methyl-3-((4-oxo-3,4,5,6,7,8-hexahydrophthalazin-1-yl)methyl)benzamide], for which the inhibition constant Ki amounted to 0.022 µM.
In the case of `O=C(c1cccc(Cc2n[nH]c(=O)c3c2CCCC3)c1)N1CCC(O)CC1` [Example 428, 4-(3-((4-hydroxypiperidin-1-yl)carbonyl)benzyl)-5,6,7,8-tetrahydrophthalazin-1(2H)-one], the inhibition constant (Ki) was determined as 0.005 µM.
To `NC(=O)C1CCCN(C(=O)c2cccc(Cc3n[nH]c(=O)c4c3CCCC4)c2)C1` (centres unmarked) [Example 429, 1-(3-((4-oxo-3,4,5,6,7,8-hexahydrophthalazin-1-yl)methyl)benzoyl)piperidine-3-carboxamide] belongs 0.019 µM.
The result for `NC(=O)C1CCN(C(=O)c2cccc(Cc3n[nH]c(=O)c4c3CCCC4)c2)CC1` [Example 430, 1-(3-((4-oxo-3,4,5,6,7,8-hexahydrophthalazin-1-yl)methyl)benzoyl)piperidine-4-carboxamide] reads 0.005 µM.
For `O=C(c1cccc(Cc2n[nH]c(=O)c3c2CCCC3)c1)N1CCC(n2c(=O)[nH]c3ccccc32)CC1` [Example 434, 4-(3-((4-(2-oxo-2,3-dihydro-1H-benzimidazol-1-yl)piperidin-1-yl)carbonyl)benzyl)-5,6,7,8-tetrahydrophthalazin-1(2H)-one], the Ki was 0.006 µM.
The result for `CN1CCN(C(=O)c2cccc(Cc3n[nH]c(=O)c4c3CCCC4)c2)CC1` [Example 435, 4-(3-((4-methylpiperazin-1-yl)carbonyl)benzyl)-5,6,7,8-tetrahydrophthalazin-1(2H)-one] reads 0.02 µM; that for `CCN1CCN(C(=O)c2cccc(Cc3n[nH]c(=O)c4c3CCCC4)c2)CC1` [Example 436, 4-(3-((4-ethylpiperazin-1-yl)carbonyl)benzyl)-5,6,7,8-tetrahydrophthalazin-1(2H)-one], 0.01 µM; that for `O=CN1CCN(C(=O)c2cccc(Cc3n[nH]c(=O)c4c3CCCC4)c2)CC1` [Example 437, 4-(3-((4-oxo-3,4,5,6,7,8-hexahydrophthalazin-1-yl)methyl)benzoyl)piperazine-1-carbaldehyde], 0.004 µM.
Take `CC(=O)N1CCN(C(=O)c2cccc(Cc3n[nH]c(=O)c4c3CCCC4)c2)CC1` [Example 438, 4-(3-((4-acetylpiperazin-1-yl)carbonyl)benzyl)-5,6,7,8-tetrahydrophthalazin-1(2H)-one]: the Ki is 0.003 µM.
For `O=C(c1cccc(Cc2n[nH]c(=O)c3c2CCCC3)c1)N1CCN(CCO)CC1` [Example 439, 4-(3-((4-(2-hydroxyethyl)piperazin-1-yl)carbonyl)benzyl)-5,6,7,8-tetrahydrophthalazin-1(2H)-one], the Ki is 0.008 µM.
Turning to `O=C(c1cccc(Cc2n[nH]c(=O)c3c2CCCC3)c1)N1CCN(c2ccccc2)CC1` [Example 440, 4-(3-((4-phenylpiperazin-1-yl)carbonyl)benzyl)-5,6,7,8-tetrahydrophthalazin-1(2H)-one], the Ki came out at 0.003 µM.
To `O=C(c1cccc(Cc2n[nH]c(=O)c3c2CCCC3)c1)N1CCN(c2ccccn2)CC1` [Example 441, 4-(3-((4-pyridin-2-ylpiperazin-1-yl)carbonyl)benzyl)-5,6,7,8-tetrahydrophthalazin-1(2H)-one] belongs 0.003 µM; to `O=C(c1cccc(Cc2n[nH]c(=O)c3c2CCCC3)c1)N1CCN(c2ncccn2)CC1` [Example 442, 4-(3-((4-pyrimidin-2-ylpiperazin-1-yl)carbonyl)benzyl)-5,6,7,8-tetrahydrophthalazin-1(2H)-one], 0.0008 µM; to `O=C(c1cccc(Cc2n[nH]c(=O)c3c2CCCC3)c1)N1CCN(CCOCCO)CC1` [Example 443, 4-(3-((4-(2-(2-hydroxyethoxy)ethyl)piperazin-1-yl)carbonyl)benzyl)-5,6,7,8-tetrahydrophthalazin-1(2H)-one], 0.016 µM.
On to `O=C(c1cccc(Cc2n[nH]c(=O)c3c2CCCC3)c1)N1CCN(c2ccccc2F)CC1` [Example 444, 4-(3-((4-(2-fluorophenyl)piperazin-1-yl)carbonyl)benzyl)-5,6,7,8-tetrahydrophthalazin-1(2H)-one], for which the Ki is 0.004 µM.
To `O=C(c1cccc(Cc2n[nH]c(=O)c3c2CCCC3)c1)N1CCN(c2ccc(F)cc2)CC1` [Example 445, 4-(3-((4-(4-fluorophenyl)piperazin-1-yl)carbonyl)benzyl)-5,6,7,8-tetrahydrophthalazin-1(2H)-one] belongs 0.006 µM; to `O=C(c1cccc(Cc2n[nH]c(=O)c3c2CCCC3)c1)N1CCN(c2ccccc2Cl)CC1` [Example 446, 4-(3-((4-(2-chlorophenyl)piperazin-1-yl)carbonyl)benzyl)-5,6,7,8-tetrahydrophthalazin-1(2H)-one], 0.01 µM; to `CN1CCCN(C(=O)c2cccc(Cc3n[nH]c(=O)c4c3CCCC4)c2)CC1` [Example 447, 4-(3-((4-methyl-1,4-diazepan-1-yl)carbonyl)benzyl)-5,6,7,8-tetrahydrophthalazin-1(2H)-one], 0.01 µM.
For the molecule `O=c1[nH]nc(Cc2ccc(F)c(N3CCCCS3(=O)=O)c2)c2c1CCCC2` [Example 448], the Ki was found to be 0.694 µM.
To `O=C1CCN1c1cc(Cc2n[nH]c(=O)c3cccnc23)ccc1F` [Example 449, 8-(4-fluoro-3-(2-oxoazetidin-1-yl)benzyl)pyrido(2,3-d)pyridazin-5(6H)-one] belongs 0.103 µM; to `O=c1[nH]nc(Cc2ccc(F)c(Cl)c2)c2c1CCCN2` [Example 450, 8-(3-chloro-4-fluorobenzyl)-2,3,4,6-tetrahydropyrido(2,3-d)pyridazin-5(1H)-one], 0.122 µM.
In the case of `CC(c1ccc(F)c(N2CCC2=O)c1)c1n[nH]c(=O)c2c1CCCC2` (centres unmarked) [Example 451, 4-(1-(4-fluoro-3-(2-oxoazetidin-1-yl)phenyl)ethyl)-5,6,7,8-tetrahydrophthalazin-1(2H)-one], the Ki stood at 0.056 µM.
